Test results taken from PubChem BioAssay AID1963826 (Molecular Pharmacology Branch, DTP, NCI, 2024).

Test system: 926638-142-R-J1-PDC complex spheroid viability
Assay: Anticancer human tumor 926638-142-R-J1-PDC patient-derived endometrial carcinoma cell line growth inhibition [POLQ]
Settings: for IC50: curve of first compound; for viability, T/C: stronger effect = lower value
In short: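 Patient-derived tumour cells were co-cultured with HUVEC and mesenchymal stem cells as multicellular spheroids at 37 °C. They were treated with POLQ inhibitors (novobiocin, ART-558, RP6685) alone or combined with other agents. Top concentrations were at or near clinical Cmax (otherwise 10 microM; SN-38 at 1 microM), decreasing in half-log steps.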

[1] = second compound 0.0316 µM, first compound 0.0316 µM
[2] = second compound 0.0316 µM, first compound 0.1 µM
[3] = second compound 0.0316 µM, first compound 0.316 µM
[4] = second compound 0.0316 µM, first compound 1 µM
[5] = second compound 0.0316 µM, first compound 3.16 µM
[6] = second compound 0.0316 µM, first compound 10 µM
[7] = second compound 0.1 µM, first compound 0.0316 µM
[8] = second compound 0.1 µM, first compound 0.1 µM
[9] = second compound 0.1 µM, first compound 0.316 µM
[10] = second compound 0.1 µM, first compound 1 µM
[11] = second compound 0.1 µM, first compound 3.16 µM
[12] = second compound 0.1 µM, first compound 10 µM
[13] = second compound 0.316 µM, first compound 0.0316 µM
[14] = second compound 0.316 µM, first compound 0.1 µM
[15] = second compound 0.316 µM, first compound 0.316 µM
[16] = second compound 0.316 µM, first compound 1 µM
[17] = second compound 0.316 µM, first compound 3.16 µM
[18] = second compound 0.316 µM, first compound 10 µM
[19] = second compound 1 µM, first compound 0.0316 µM
[20] = second compound 1 µM, first compound 0.1 µM
[21] = second compound 1 µM, first compound 0.316 µM
[22] = second compound 1 µM, first compound 1 µM
[23] = second compound 1 µM, first compound 3.16 µM
[24] = second compound 1 µM, first compound 10 µM
[25] = second compound 3.16 µM, first compound 0.0316 µM
[26] = second compound 3.16 µM, first compound 0.1 µM
[27] = second compound 3.16 µM, first compound 0.316 µM
[28] = second compound 3.16 µM, first compound 1 µM
[29] = second compound 3.16 µM, first compound 3.16 µM
[30] = second compound 3.16 µM, first compound 10 µM
[31] = second compound 10 µM, first compound 0.0316 µM
[32] = second compound 10 µM, first compound 0.1 µM
[33] = second compound 10 µM, first compound 0.316 µM
[34] = second compound 10 µM, first compound 1 µM
[35] = second compound 10 µM, first compound 3.16 µM
[36] = second compound 10 µM, first compound 10 µM
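Note: spheroids exposed to drugs for one week before readout.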
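Throughout, for viability, T/C: percent viability relative to DMSO vehicle control wells set as 100%.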

CC(=O)O[C@H]1C(=O)[C@@]2(C)[C@H]([C@H](OC(=O)c3ccccc3)[C@]3(O)C[C@H](OC(=O)[C@H](O)[C@@H](NC(=O)c4ccccc4)c4ccccc4)C(C)=C1C3(C)C)[C@]1(OC(C)=O)CO[C@@H]1C[C@@H]2O + Nc1ccc(C#CCN(C(=O)Cc2ncc(C(F)(F)F)cc2C(F)(F)F)c2ccc(F)cc2)nn1
IC50 (second compound 0.0316 µM): 433 nM
IC50 (second compound 0.1 µM): 1300 nM
IC50 (second compound 0.316 µM): 458 nM
IC50 (second compound 1 µM): > 3000 nM
IC50 (second compound 3.16 µM): 1940 nM
IC50 (second compound 10 µM): 139 nM
viability, T/C (second compound 0.0316 µM, first compound 0.00949 µM): 85.1%
viability, T/C (second compound 0.0316 µM, first compound 0.03 µM): 62.4%
viability, T/C (second compound 0.0316 µM, first compound 0.0949 µM): 56.9%
viability, T/C (second compound 0.0316 µM, first compound 0.3 µM): 50.7%
viability, T/C (second compound 0.0316 µM, first compound 0.949 µM): 47.9%
viability, T/C (second compound 0.0316 µM, first compound 3 µM): 48%
viability, T/C (second compound 0.1 µM, first compound 0.00949 µM): 84.3%
viability, T/C (second compound 0.1 µM, first compound 0.03 µM): 76.3%
viability, T/C (second compound 0.1 µM, first compound 0.0949 µM): 58.2%
viability, T/C (second compound 0.1 µM, first compound 0.3 µM): 69.8%
viability, T/C (second compound 0.1 µM, first compound 0.949 µM): 51%
viability, T/C (second compound 0.1 µM, first compound 3 µM): 42.9%
viability, T/C (second compound 0.316 µM, first compound 0.00949 µM): 91.4%
viability, T/C (second compound 0.316 µM, first compound 0.03 µM): 72.3%
viability, T/C (second compound 0.316 µM, first compound 0.0949 µM): 57.5%
viability, T/C (second compound 0.316 µM, first compound 0.3 µM): 47.7%
viability, T/C (second compound 0.316 µM, first compound 0.949 µM): 50.9%
viability, T/C (second compound 0.316 µM, first compound 3 µM): 45.2%
viability, T/C (second compound 1 µM, first compound 0.00949 µM): 79.3%
viability, T/C (second compound 1 µM, first compound 0.03 µM): 71.3%
viability, T/C (second compound 1 µM, first compound 0.0949 µM): 57%
viability, T/C (second compound 1 µM, first compound 0.3 µM): 51.8%
viability, T/C (second compound 1 µM, first compound 0.949 µM): 50.7%
viability, T/C (second compound 1 µM, first compound 3 µM): 50.8%
viability, T/C (second compound 3.16 µM, first compound 0.00949 µM): 82.7%
viability, T/C (second compound 3.16 µM, first compound 0.03 µM): 65%
viability, T/C (second compound 3.16 µM, first compound 0.0949 µM): 53.6%
viability, T/C (second compound 3.16 µM, first compound 0.3 µM): 53.1%
viability, T/C (second compound 3.16 µM, first compound 0.949 µM): 52.8%
viability, T/C (second compound 3.16 µM, first compound 3 µM): 47.3%
viability, T/C (second compound 10 µM, first compound 0.00949 µM): 76.3%
viability, T/C (second compound 10 µM, first compound 0.03 µM): 60.7%
viability, T/C (second compound 10 µM, first compound 0.0949 µM): 50.4%
viability, T/C (second compound 10 µM, first compound 0.3 µM): 49%
viability, T/C (second compound 10 µM, first compound 0.949 µM): 46.9%
viability, T/C (second compound 10 µM, first compound 3 µM): 51.8%

COc1cc(C2c3cc4c(cc3C(OC3OC5COC(C)OC5C(O)C3O)C3COC(=O)C23)OCO4)cc(OC)c1O (stereo unspecified) + Nc1ccc(C#CCN(C(=O)Cc2ncc(C(F)(F)F)cc2C(F)(F)F)c2ccc(F)cc2)nn1
IC50 (second compound 0.0316 µM): > 10000 nM
IC50 (second compound 0.1 µM): > 10000 nM
IC50 (second compound 0.316 µM): > 10000 nM
IC50 (second compound 1 µM): > 10000 nM
IC50 (second compound 3.16 µM): > 10000 nM
IC50 (second compound 10 µM): > 10000 nM
viability, T/C [1]: 99.2%
viability, T/C [2]: 81.6%
viability, T/C [3]: 80.3%
viability, T/C [4]: 73.1%
viability, T/C [5]: 77.8%
viability, T/C [6]: 58.1%
viability, T/C [7]: 96.6%
viability, T/C [8]: 101%
viability, T/C [9]: 70.3%
viability, T/C [10]: 67.4%
viability, T/C [11]: 80%
viability, T/C [12]: 53.5%
viability, T/C [13]: 106%
viability, T/C [14]: 77.7%
viability, T/C [15]: 71.7%
viability, T/C [16]: 69.4%
viability, T/C [17]: 69.7%
viability, T/C [18]: 54%
viability, T/C [19]: 102%
viability, T/C [20]: 83.1%
viability, T/C [21]: 80.4%
viability, T/C [22]: 74.4%
viability, T/C [23]: 69.3%
viability, T/C [24]: 57%
viability, T/C [25]: 83.3%
viability, T/C [26]: 87.2%
viability, T/C [27]: 71.2%
viability, T/C [28]: 63.3%
viability, T/C [29]: 76.1%
viability, T/C [30]: 51%
viability, T/C [31]: 94.9%
viability, T/C [32]: 82.6%
viability, T/C [33]: 73.3%
viability, T/C [34]: 63%
viability, T/C [35]: 69%
viability, T/C [36]: 53.4%

COc1cccc2c1C(=O)c1c(O)c3c(c(O)c1C2=O)CC(O)(C(=O)CO)CC3OC1CC(N)C(O)C(C)O1 (stereo unspecified) + Nc1ccc(C#CCN(C(=O)Cc2ncc(C(F)(F)F)cc2C(F)(F)F)c2ccc(F)cc2)nn1
IC50 (second compound 0.0316 µM): 167 nM
IC50 (second compound 0.1 µM): 140 nM
IC50 (second compound 0.316 µM): 137 nM
IC50 (second compound 1 µM): 150 nM
IC50 (second compound 3.16 µM): 118 nM
IC50 (second compound 10 µM): 127 nM
viability, T/C [1]: 86.7%
viability, T/C [2]: 69.4%
viability, T/C [3]: 25.7%
viability, T/C [4]: 8.06%
viability, T/C [5]: 0.22%
viability, T/C [6]: 0.4%
viability, T/C [7]: 90.7%
viability, T/C [8]: 59.6%
viability, T/C [9]: 26.1%
viability, T/C [10]: 6.81%
viability, T/C [11]: 0.22%
viability, T/C [12]: 0.36%
viability, T/C [13]: 78.7%
viability, T/C [14]: 58.9%
viability, T/C [15]: 26.5%
viability, T/C [16]: 7.2%
viability, T/C [17]: 0.19%
viability, T/C [18]: 0.51%
viability, T/C [19]: 89%
viability, T/C [20]: 62.4%
viability, T/C [21]: 27.4%
viability, T/C [22]: 7.01%
viability, T/C [23]: 0.23%
viability, T/C [24]: 0.29%
viability, T/C [25]: 80.6%
viability, T/C [26]: 54.4%
viability, T/C [27]: 23.2%
viability, T/C [28]: 7.1%
viability, T/C [29]: 0.27%
viability, T/C [30]: 0.31%
viability, T/C [31]: 74%
viability, T/C [32]: 57.6%
viability, T/C [33]: 20.7%
viability, T/C [34]: 3.99%
viability, T/C [35]: 0.31%
viability, T/C [36]: 0.43%
